How the values were obtained:
[1] = tested on: U87MG cells; experiment: Cellular assay: inhibition of 2-HG production in U87MG cells (LC-MS, 48 hours); type: cell-based; settings: Homo sapiens, U-87 MG, 2-HG in media by LC-MS
Protocol: (§1) Cells (HT1080 or U87MG) were grown in T125 flasks in DMEM containing 10% FBS, 1× penicillin/streptomycin and 500 ug/mL G418 (present in U87MG cells only). They were harvested by trypsin and seeded into 96 well white bottom plates at a density of 5000 cell/well in 100 ul/well in DMEM with 10% FBS. No cells were placed in columns 1 and 12. Cells were incubated overnight at 37° C. in 5% CO2. The next day test compounds were made up at 2× the final concentration and 100 ul were added to each cell well. The final concentration of DMSO was 0.2% and the DMSO control wells were plated in row G. The plates were then placed in the incubator for 48 hours. At 48 hours, 100 ul of media was removed from each well and analyzed by LC-MS for 2-HG concentrations. The cell plate was placed back in the incubator for another 24 hours. At 72 hours post compound addition, 10 mL/plate of Promega Cell Titer Glo reagent was thawed and mixed. The cell plate was removed from the incubator and allowed to equilibrate to room temperature. Then 100 ul of Promega Cell Titer Glo reagent was added to each well of media. The cell plate was then placed on an orbital shaker for 10 minutes and then allowed to sit at room temperature for 20 minutes. The plate was then read for luminescence with an integration time of 500 ms.

[2] = target: IDH1 R132H (Homo sapiens, UniProt O75874, R132H); experiment: In vitro assay for IDH1 R132H inhibitors (NADPH/aKG, resazurin detection); type: biochemical; settings: Table 4B; 0.2 μg/ml IDH1 R132H, 50 minutes at room temperature; read-out: IC50, IDH1 R132H Inhibition
Sequence of IDH1 R132H (O75874 whole entry R132H): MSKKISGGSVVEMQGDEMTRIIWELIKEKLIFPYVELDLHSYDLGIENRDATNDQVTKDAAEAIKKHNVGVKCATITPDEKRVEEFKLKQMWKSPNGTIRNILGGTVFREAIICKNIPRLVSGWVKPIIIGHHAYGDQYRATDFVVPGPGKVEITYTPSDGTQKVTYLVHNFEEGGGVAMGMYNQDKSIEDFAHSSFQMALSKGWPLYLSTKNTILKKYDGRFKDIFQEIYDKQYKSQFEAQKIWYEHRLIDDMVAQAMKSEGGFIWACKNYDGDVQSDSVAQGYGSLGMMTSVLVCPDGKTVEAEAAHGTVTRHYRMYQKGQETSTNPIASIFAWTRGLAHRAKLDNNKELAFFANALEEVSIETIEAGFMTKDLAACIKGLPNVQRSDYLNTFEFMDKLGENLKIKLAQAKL
Procedure, shortened: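 Reaction ran 50 min at room temperature in Tris pH 7.5 buffer with 150 mM NaCl, 10 mM MgCl2 and 0.03% BSA. Mix concentrations were 0.2 μg/ml mutant enzyme, 8 uM NADPH and 2 mM aKG. Detection added 30 μM resazurin, with resorufin fluorescence (Ex544/Em590) measured 5 min later.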

[3] = tested on: HT1080 cells; experiment: Cellular assay: inhibition of 2-HG production in HT1080 cells (LC-MS, 48 hours); type: cell-based; settings: Homo sapiens, HT-1080, 2-HG in media by LC-MS
Protocol: as §1

SMILES	IC50 [1]	IC50 [2]	IC50 [3]
Cc1ccccc1C(C(=O)NC1CCCCC1)N(C(=O)CNc1cccc(F)n1)c1cccc(F)c1 (stereo not drawn) [Compound 302]	250 to 1000 nM	100 to 1000 nM	≤ 250 nM
CC(=O)Nc1cccc(N(C(=O)Cn2ccnc2C)C(C(=O)NC2CCCCC2)c2ccccc2C)c1 (stereo not drawn) [Compound 236]	1000 to 5000 nM	100 to 1000 nM	> 5000 nM
Cc1ccccc1C(C(=O)NC1CCCCC1)N(C(=O)COCc1ccccn1)c1cccc(F)c1 (stereo not drawn) [Compound 281]	250 to 1000 nM	100 to 1000 nM	≤ 250 nM
Cc1ccccc1C(C(=O)NC1CCCCC1)N(C(=O)Cc1c[nH]c2ccncc12)c1cccc(F)c1 (stereo not drawn) [Compound 261]	1000 to 5000 nM	100 to 1000 nM	250 to 1000 nM
Cc1ccccc1C(C(=O)NC1CCCCC1)N(C(=O)Cc1ccccn1)c1cccc(F)c1 (stereo not drawn) [Compound 305]	250 to 1000 nM	100 to 1000 nM	250 to 1000 nM
Cc1nccn1CC(=O)N(c1cccc(F)c1)C(C(=O)NC1CCCCC1)c1ccccc1Cl (stereo not drawn) [Compound 314]	≤ 250 nM	≤ 100 nM	≤ 250 nM
Cc1ccccc1C(C(=O)NC1CCCCC1)N(C(=O)CNc1cncc(F)c1)c1cccc(F)c1 (stereo not drawn) [Compound 310]	1000 to 5000 nM	100 to 1000 nM	250 to 1000 nM
Cc1ccccc1C(C(=O)NC1CCCCC1)N(C(=O)Cc1cccnc1)c1cccc(F)c1 (stereo not drawn) [Compound 288]	1000 to 5000 nM	≤ 100 nM	250 to 1000 nM
Cc1ccccc1C(C(=O)NCC1CCCCC1)N(C(=O)Cc1cccs1)c1cccc(F)c1 (stereo not drawn) [Compound 211]	1000 to 5000 nM	100 to 1000 nM	1000 to 5000 nM
Cc1ccccc1C(C(=O)NC1CCC(F)(F)CC1)N(C(=O)CNc1ncccc1F)c1cccc(F)c1 (stereo not drawn) [Compound 342]	250 to 1000 nM	100 to 1000 nM	250 to 1000 nM
Cc1ccccc1C(C(=O)NC1CCC(F)(F)CC1)N(C(=O)COc1ccccn1)c1cccc(F)c1 (stereo not drawn) [Compound 331]	≤ 250 nM	≤ 100 nM	≤ 250 nM
[2H]C1([2H])C([2H])([2H])C([2H])([2H])C([2H])(NC(=O)C(c2ccccc2C)N(C(=O)CNc2ncccc2F)c2cccc(F)c2)C([2H])([2H])C1([2H])[2H] (stereo not drawn) [Compound 361]	≤ 250 nM	≤ 100 nM	≤ 250 nM
CCOC(=O)N1CCCC[C@@H]1C(=O)N(c1cccc(F)c1)[C@H](C(=O)NC1CCCCC1)c1ccccc1C [Compound 345]	1000 to 5000 nM	100 to 1000 nM	1000 to 5000 nM
Cc1ccccc1C(C(=O)NC1CCCCC1)N(C(=O)Cn1ccnc1C)c1cccc(-c2ccccc2)c1 (stereo not drawn) [Compound 286]	≤ 250 nM	100 to 1000 nM	250 to 1000 nM
Cc1ccccc1C(C(=O)NC1CCCCC1)N(C(=O)CN1CCN(C(=O)O[C@H]2CCOC2)CC1)c1cccc(F)c1 (stereo partly drawn) [Compound 248]	1000 to 5000 nM	100 to 1000 nM	1000 to 5000 nM
Cc1ccccc1C(C(=O)NC1CCCCC1)N(C(=O)Cc1c[nH]c2cnccc12)c1cccc(F)c1 (stereo not drawn) [Compound 276]	≤ 250 nM	≤ 100 nM	≤ 250 nM
Cc1ccccc1C(C(=O)NC1CCCCC1)N(C(=O)Cn1cnc2cnccc21)c1cccc(F)c1 (stereo not drawn) [Compound 266]	> 5000 nM	100 to 1000 nM	> 5000 nM
[2H]C1([2H])C([2H])([2H])C([2H])([2H])C([2H])(NC(=O)C(c2ccccc2C)N(C(=O)COc2ccccn2)c2cccc(F)c2)C([2H])([2H])C1([2H])[2H] (stereo not drawn) [Compound 351]	≤ 250 nM	≤ 100 nM	≤ 250 nM
COc1ccccc1NCC(=O)N(c1cccc(F)c1)C(C(=O)NC1CCCCC1)c1ccccc1C (stereo not drawn) [Compound 218]	250 to 1000 nM	≤ 100 nM	250 to 1000 nM
Cc1cnccc1NC(=O)N(Cc1cccs1)C(C(=O)NC1CCCCC1)c1ccccc1C (stereo not drawn) [Compound 389]	1000 to 5000 nM	100 to 1000 nM	1000 to 5000 nM
Cc1ccccc1C(C(=O)NC1CCCCC1)N(C(=O)Cc1ccc(OC(=O)N(C)C)cc1)c1cccc(F)c1 (stereo not drawn) [Compound 263]	250 to 1000 nM	100 to 1000 nM	≤ 250 nM

— US20130184222A1, “[…] ACTIVE COMPOSITIONS AND THEIR METHODS OF USE” (AGIOS PHARMACEUTICALS, INC, priority 2010, published 2013)
